Results taken from US12480848B2, “Crack sensor, preparation method therefor, and application thereof in micro-force measurement” (QILU UNIVERSITY OF TECHNOLOGY (SHANDONG ACADEMY OF SCIENCES), priority 2022, dated 2025).
pEC50: −log10 of the molar value. Like-named read-outs stand apart in the source and are kept apart here.

Test system: cardiomyocytes (CM)
Experiment: Drug evaluation: CM contractility (contractile force, beating rate) measured with the Ag/CNT-PDMS crack sensor
Conditions: for pEC50: Cardiomyocyte

Q: `CC(C)NCC(O)c1ccc(O)c(O)c1` (stereo not shown) [isoproterenol] was tested. Which pEC50 (read-out: apparent EC50 of CM beating rate (dose-response curve)) did it give?
A: 7.15

Q: What about the pEC50 (read-out: apparent EC50 of CM contractile force (dose-response curve)) of the same molecule?
A: 7.03

Q: What about the “contractile force and beating rate” value (concentration increased from 0.1 nM to 1 μM) of the same molecule?
A: gradually increased

Q: What about the CM contractility (when the concentration reached 100 nM) of the same molecule?
A: became saturated
